Measured values taken from the NIST ThermoML archive (doi:10.1021/je049612f).
± gives the expanded uncertainty stated by the source.

Conditions: Gas, Vibrating wire viscometry

FS(F)(F)(F)(F)F [sulfur hexafluoride]
Conditions | viscosity [mPa·s]
350 K, 269.03 kPa | 0.0176 ± 0.00091
350 K, 295.24 kPa | 0.0176 ± 0.00091
350 K, 332.44 kPa | 0.01761 ± 0.00091
350 K, 363.13 kPa | 0.01762 ± 0.00091
350 K, 390.5 kPa | 0.01763 ± 0.00091
350 K, 418.5 kPa | 0.01765 ± 0.00091
350 K, 450.38 kPa | 0.01765 ± 0.00091
350 K, 485.3 kPa | 0.01766 ± 0.00091
350 K, 522.75 kPa | 0.01767 ± 0.00091
350 K, 552.81 kPa | 0.01768 ± 0.00091
350 K, 579.7 kPa | 0.01769 ± 0.00091
350 K, 619.51 kPa | 0.01771 ± 0.00091
350 K, 654.26 kPa | 0.01772 ± 0.00091
350 K, 701.64 kPa | 0.01775 ± 0.00091
350 K, 739.48 kPa | 0.01775 ± 0.00091
350 K, 779.89 kPa | 0.01777 ± 0.00091
350 K, 809.98 kPa | 0.01779 ± 0.00091
350 K, 855.04 kPa | 0.0178 ± 0.00091
350 K, 900.26 kPa | 0.01782 ± 0.00091
350 K, 954.25 kPa | 0.01784 ± 0.00091
350 K, 997.88 kPa | 0.01787 ± 0.00091
350 K, 1051.5 kPa | 0.0179 ± 0.00091
350 K, 1146.2 kPa | 0.01795 ± 0.00091
350 K, 1196.5 kPa | 0.01798 ± 0.00091
350 K, 1265.4 kPa | 0.01803 ± 0.00091
350 K, 1341.2 kPa | 0.01807 ± 0.00092
350 K, 1392.7 kPa | 0.01811 ± 0.00092
350 K, 1473.1 kPa | 0.01816 ± 0.00092
350 K, 1546.1 kPa | 0.01821 ± 0.00092
350 K, 1621.8 kPa | 0.01827 ± 0.00092
350 K, 1656.3 kPa | 0.0183 ± 0.00092
350 K, 1713.2 kPa | 0.01835 ± 0.00092
350 K, 1840 kPa | 0.01844 ± 0.00092
350 K, 1888.3 kPa | 0.01849 ± 0.00092
350 K, 1964.6 kPa | 0.01856 ± 0.00092
350 K, 2005.9 kPa | 0.01861 ± 0.00092
350 K, 2043.2 kPa | 0.01864 ± 0.00092
350 K, 2108.6 kPa | 0.01871 ± 0.00092
350 K, 2309.3 kPa | 0.01893 ± 0.00092
350 K, 2394 kPa | 0.01903 ± 0.00092
350 K, 2449.2 kPa | 0.01908 ± 0.00092
350 K, 2505.1 kPa | 0.01916 ± 0.00092
350 K, 2608.1 kPa | 0.01929 ± 0.00092
350 K, 2657.7 kPa | 0.01936 ± 0.00093
350 K, 2798.4 kPa | 0.01957 ± 0.00093
350 K, 2900.4 kPa | 0.01971 ± 0.00093
350 K, 2978.2 kPa | 0.01986 ± 0.00093
350 K, 3047.1 kPa | 0.01996 ± 0.00093
350 K, 3125.3 kPa | 0.0201 ± 0.00093
350 K, 3224.5 kPa | 0.02028 ± 0.00093
350 K, 3319.6 kPa | 0.02047 ± 0.00093
350 K, 3405.3 kPa | 0.02064 ± 0.00094
350 K, 3504.4 kPa | 0.02085 ± 0.00094
350 K, 3655.4 kPa | 0.02123 ± 0.00094
350 K, 3748 kPa | 0.02146 ± 0.00094
350 K, 3869.5 kPa | 0.02179 ± 0.00094
350 K, 3987.5 kPa | 0.02211 ± 0.00095
350 K, 4143 kPa | 0.02261 ± 0.00095
350 K, 4307.3 kPa | 0.02322 ± 0.00096
350 K, 4473.2 kPa | 0.02386 ± 0.00096
350 K, 4598.1 kPa | 0.02443 ± 0.00096
350 K, 4732.9 kPa | 0.02508 ± 0.00097
350 K, 4848.3 kPa | 0.02571 ± 0.00097
350 K, 4964.3 kPa | 0.02637 ± 0.00098
350 K, 5096.1 kPa | 0.02724 ± 0.00099
350 K, 5208.7 kPa | 0.02806 ± 0.00099
350 K, 5327.4 kPa | 0.02902 ± 0.001
350 K, 5431.3 kPa | 0.02995 ± 0.001
350 K, 5524.2 kPa | 0.03078 ± 0.001
350 K, 5638.8 kPa | 0.03189 ± 0.001
350 K, 5741 kPa | 0.03299 ± 0.001
350 K, 5850 kPa | 0.03434 ± 0.001
350 K, 5956.2 kPa | 0.03561 ± 0.0011
350 K, 6067.6 kPa | 0.03706 ± 0.0011
350 K, 6177.6 kPa | 0.03857 ± 0.0011
350 K, 6280.8 kPa | 0.03995 ± 0.0011
350 K, 6385.1 kPa | 0.04139 ± 0.0011
350 K, 6510.8 kPa | 0.04319 ± 0.0012
350 K, 6635.4 kPa | 0.04497 ± 0.0011
350 K, 6769.6 kPa | 0.04684 ± 0.0011
350 K, 6918.8 kPa | 0.04891 ± 0.0012
350 K, 7076.5 kPa | 0.05108 ± 0.0012
350 K, 7230 kPa | 0.05306 ± 0.0012
350 K, 7408.1 kPa | 0.05532 ± 0.0012
350 K, 7592 kPa | 0.05755 ± 0.0012
350 K, 7767.3 kPa | 0.05957 ± 0.0012
350 K, 8006.2 kPa | 0.06218 ± 0.0013
350 K, 8297.4 kPa | 0.06505 ± 0.0013
350 K, 8558.7 kPa | 0.06754 ± 0.0013
350 K, 8849.5 kPa | 0.07028 ± 0.0013
350 K, 9294 kPa | 0.07399 ± 0.0014
350 K, 9823.4 kPa | 0.07814 ± 0.0014
350 K, 10614 kPa | 0.08354 ± 0.0015
350 K, 11424 kPa | 0.08869 ± 0.0015
350 K, 12301 kPa | 0.09386 ± 0.0016
375 K, 72.56 kPa | 0.01862 ± 0.00092
375 K, 103.02 kPa | 0.01864 ± 0.00092
375 K, 132.08 kPa | 0.01864 ± 0.00092
375 K, 156.74 kPa | 0.01865 ± 0.00092
375 K, 183.32 kPa | 0.01866 ± 0.00092
375 K, 219.98 kPa | 0.01868 ± 0.00092
375 K, 258.3 kPa | 0.01869 ± 0.00092
375 K, 282.8 kPa | 0.0187 ± 0.00092
375 K, 308.36 kPa | 0.01871 ± 0.00092
375 K, 342.15 kPa | 0.01871 ± 0.00092
375 K, 371.36 kPa | 0.01872 ± 0.00092
375 K, 403.52 kPa | 0.01873 ± 0.00092
375 K, 435.36 kPa | 0.01874 ± 0.00092
375 K, 464.82 kPa | 0.01875 ± 0.00092
375 K, 499.73 kPa | 0.01876 ± 0.00092
375 K, 539.14 kPa | 0.01878 ± 0.00092
375 K, 563.93 kPa | 0.01878 ± 0.00092
375 K, 612.98 kPa | 0.0188 ± 0.00092
375 K, 661.4 kPa | 0.01882 ± 0.00092
375 K, 695.12 kPa | 0.01884 ± 0.00092
375 K, 746.7 kPa | 0.01886 ± 0.00092
375 K, 805.08 kPa | 0.01888 ± 0.00092
375 K, 855.26 kPa | 0.0189 ± 0.00092
375 K, 917.96 kPa | 0.01894 ± 0.00092
375 K, 999.57 kPa | 0.01897 ± 0.00092
375 K, 1067.6 kPa | 0.01901 ± 0.00092
375 K, 1146.8 kPa | 0.01905 ± 0.00092
375 K, 1211.3 kPa | 0.01909 ± 0.00092
375 K, 1302.5 kPa | 0.01914 ± 0.00092
375 K, 1385 kPa | 0.01919 ± 0.00092
375 K, 1460.9 kPa | 0.01924 ± 0.00092
375 K, 1534.4 kPa | 0.01928 ± 0.00092
375 K, 1588.3 kPa | 0.01932 ± 0.00092
375 K, 1723.3 kPa | 0.01941 ± 0.00093
375 K, 1809.5 kPa | 0.01948 ± 0.00093
375 K, 1885.1 kPa | 0.01954 ± 0.00093
375 K, 1966.6 kPa | 0.01959 ± 0.00093
375 K, 2043 kPa | 0.01966 ± 0.00093
375 K, 2300.6 kPa | 0.0199 ± 0.00093
375 K, 2399.3 kPa | 0.01998 ± 0.00093
375 K, 2484.3 kPa | 0.02006 ± 0.00093
375 K, 2587.3 kPa | 0.02019 ± 0.00093
375 K, 2879.2 kPa | 0.02051 ± 0.00093
375 K, 3052.5 kPa | 0.02072 ± 0.00094
375 K, 3214.1 kPa | 0.02095 ± 0.00094
375 K, 3418.4 kPa | 0.02122 ± 0.00094
375 K, 3699.7 kPa | 0.02167 ± 0.00094
375 K, 3960.7 kPa | 0.02214 ± 0.00095
375 K, 4136.6 kPa | 0.02249 ± 0.00095
375 K, 4384.3 kPa | 0.02299 ± 0.00095
375 K, 4599 kPa | 0.02348 ± 0.00096
375 K, 4821 kPa | 0.02401 ± 0.00096
375 K, 5057 kPa | 0.02467 ± 0.00097
375 K, 5280.9 kPa | 0.02535 ± 0.00097
375 K, 5535.4 kPa | 0.02617 ± 0.00098
375 K, 5778.6 kPa | 0.02706 ± 0.00098
375 K, 6000.4 kPa | 0.02791 ± 0.00099
375 K, 6326.2 kPa | 0.02939 ± 0.001
375 K, 6677.7 kPa | 0.03112 ± 0.001
375 K, 6887.6 kPa | 0.03224 ± 0.001
375 K, 7092.9 kPa | 0.03343 ± 0.001
375 K, 7293.5 kPa | 0.03466 ± 0.001
375 K, 7524.4 kPa | 0.03612 ± 0.0011
375 K, 7762.9 kPa | 0.0377 ± 0.0011
375 K, 7973.1 kPa | 0.03919 ± 0.0011
375 K, 8202 kPa | 0.04079 ± 0.0011
375 K, 8452.7 kPa | 0.04259 ± 0.0011
375 K, 8711.3 kPa | 0.04448 ± 0.0011
375 K, 8972.9 kPa | 0.04632 ± 0.0011
375 K, 9257.7 kPa | 0.04836 ± 0.0011
375 K, 9573.7 kPa | 0.05065 ± 0.0012
375 K, 9868.9 kPa | 0.05275 ± 0.0012
375 K, 10221 kPa | 0.05519 ± 0.0012
375 K, 10547 kPa | 0.05738 ± 0.0012
